The values that follow come from the NIST ThermoML archive (doi:10.1016/j.jct.2006.11.003).

The nature of data set [1]: xn = mol fraction of the nth substance listed. As to conditions: 101 kPa, Liquid, x2 = 0.
Data set [2] is described as follows: refractive index (Na D-line) (dimensionless). As to conditions: 298.15 K; 101.33 kPa; Liquid; Standard Abbe refractometry.
For data set [3] the following is noted: 101 kPa, Liquid.

Molecules are shown by their SMILES. ± gives the expanded uncertainty stated by the source.

In general, mass density refers to the mass of a sample divided by its volume. `CN1CCCC1=O` [N-methylpyrrolidone] + Cc1cccc(C)c1: the mass density in data set [1] (293.15 K) was 1032.66 ± 0.48 kg/m3; in data set [1] (303.15 K) it was 1023.42 ± 0.44 kg/m3; in data set [1] (313.15 K) it was 1014.27 ± 0.4 kg/m3; in data set [1] (323.15 K) it was 1005.62 ± 0.37 kg/m3; in data set [1] (333.15 K), 996.28 ± 0.36 kg/m3; in data set [1] (343.15 K), 987.39 ± 0.4 kg/m3. In addition, the mass density in data set [1] (353.15 K) was 978.62 ± 0.43 kg/m3.
As a reminder, the refractive index is the speed of light in vacuum divided by its phase velocity in the sample. `Cc1ccc(C)cc1` [1,4-dimethylbenzene]: the refractive index in data set [2] was found to be 1.4958 ± 0.0008. Also, the mass density was found to be 860.95 ± 0.83 kg/m3 in data set [3] (293.15 K); 856.58 ± 0.84 kg/m3 in data set [3] (298.15 K); 852.3 ± 0.85 kg/m3 in data set [3] (303.15 K); 834.76 ± 0.9 kg/m3 in data set [3] (323.15 K); 825.86 ± 1.2 kg/m3 in data set [3] (333.15 K); 816.87 ± 0.95 kg/m3 in data set [3] (343.15 K). For the same compound, the mass density in data set [3] (353.15 K) amounted to 807.81 ± 0.98 kg/m3.
Regarding `CN1CCCC1=O` [N-methylpyrrolidone] + Cc1ccc(C)cc1, the mass density is recorded as 1032.66 ± 0.48 kg/m3 in data set [1] (293.15 K); 1023.42 ± 0.44 kg/m3 in data set [1] (303.15 K); 1014.27 ± 0.4 kg/m3 in data set [1] (313.15 K); 1005.62 ± 0.37 kg/m3 in data set [1] (323.15 K); 996.28 ± 0.36 kg/m3 in data set [1] (333.15 K); 987.39 ± 0.4 kg/m3 in data set [1] (343.15 K). Also, the mass density in data set [1] (353.15 K) came to 978.62 ± 0.43 kg/m3.
As to `CN1CCCC1=O` [N-methylpyrrolidone] + Cc1ccccc1C, the mass density is 1032.66 ± 0.48 kg/m3 in data set [1] (293.15 K); 1023.42 ± 0.44 kg/m3 in data set [1] (303.15 K); 1014.27 ± 0.4 kg/m3 in data set [1] (313.15 K); 1005.62 ± 0.37 kg/m3 in data set [1] (323.15 K); 996.28 ± 0.36 kg/m3 in data set [1] (333.15 K); 987.39 ± 0.4 kg/m3 in data set [1] (343.15 K). In addition, the mass density in data set [1] (353.15 K) is reported as 978.62 ± 0.43 kg/m3.
With `Cc1cccc(C)c1` [1,3-dimethylbenzene], in data set [2], the refractive index is given as 1.4973 ± 0.0008. Further, the mass density in data set [3] (293.15 K) stood at 864.31 ± 1.3 kg/m3; in data set [3] (298.15 K), 859.83 ± 1.3 kg/m3; in data set [3] (303.15 K), 855.64 ± 1.3 kg/m3; in data set [3] (313.15 K), 846.9 ± 1.3 kg/m3; in data set [3] (323.15 K), 838.09 ± 1.3 kg/m3; in data set [3] (333.15 K), 829.22 ± 1.3 kg/m3. Moreover, the mass density in data set [3] (343.15 K) worked out at 820.29 ± 1.4 kg/m3; in data set [3] (353.15 K) it was 811.29 ± 1.4 kg/m3.
Take `CN1CCCC1=O` [N-methylpyrrolidone]: the refractive index in data set [2] was 1.4677 ± 0.0007. Besides, the mass density in data set [3] (293.15 K) was found to be 1032.66 ± 0.48 kg/m3; in data set [3] (298.15 K), 1028.25 ± 0.46 kg/m3; in data set [3] (303.15 K), 1023.42 ± 0.44 kg/m3; in data set [3] (313.15 K) it was 1014.27 ± 0.4 kg/m3; in data set [3] (323.15 K), 1005.62 ± 0.37 kg/m3; in data set [3] (333.15 K), 996.28 ± 0.36 kg/m3. Besides, the figures for the mass density in data set [3] (343.15 K) and in data set [3] (353.15 K) were 987.39 ± 0.4 kg/m3 and 978.62 ± 0.43 kg/m3, respectively.
On to `Cc1ccccc1C` [1,2-dimethylbenzene], for which the refractive index in data set [2] amounted to 1.5057 ± 0.0007. The mass density worked out at 879.84 ± 0.64 kg/m3 in data set [3] (293.15 K); 875.73 ± 0.65 kg/m3 in data set [3] (298.15 K); 871.48 ± 0.66 kg/m3 in data set [3] (303.15 K); 863.03 ± 0.69 kg/m3 in data set [3] (313.15 K); 854.51 ± 0.72 kg/m3 in data set [3] (323.15 K); 845.91 ± 0.74 kg/m3 in data set [3] (333.15 K). In addition, the mass density stood at 837.23 ± 0.77 kg/m3 in data set [3] (343.15 K) and 828.47 ± 0.8 kg/m3 in data set [3] (353.15 K).
